From patent publication US9212168B2 (priority 2011, dated 2015)

Tests used:
[1] = biological target: HCV genotype 1b replicon; experiment: HCV genotype 1b replicon assay (Renilla luciferase readout); type: cell-based, hepatitis C virus; conditions: for Genotype 1b: HCV genotype 1b replicon; for EC50: Hepatitis C virus, read-out: Genotype 1b
From the text: Assay 1: HCV Genotype 1b Replicon Assay
The HCV genotype 1b replicon cell line was obtained from Apath LLC (Brooklyn, N.Y.) (APC144; Huh7 cell background). This subgenomic replicon contains the N-terminus of the HCV core protein fused to the neomycin-resistance selectable marker. The EMCV IRES lies downstream and drives expression of humanized Renilla luciferase fused to the non-structural proteins NS3-NS5B. This cell line was used to determine compound potency using the luciferase activity readout as a measurement of compound inhibition of replicon levels.
Cells were grown at 37° C. in a 5% CO2 humidified incubator in DMEM (Invitrogen) with 10% FBS (HyClone), 1×NEAA (Invitrogen), 1× Pen-Strep (Invitrogen), and 500 μg/mL G418 (Invitrogen). On day 1 of the assay, cells were plated at 10,000 cells/well in white 96-well tissue culture plates (Costar) in 200 μL media lacking G418. Four hours later, once the cells have adhered, the media was removed and replaced with media (no G418) containing dose-responses of test compounds. Compounds were initially diluted in DMSO and then diluted another 200× in media to bring the final DMSO concentration down to 0.5%. The cells were incubated with test compounds for 48 hours. At the end of the incubation period, media and compound were removed from the plates and the luciferase activity was determined using Promega Renilla-Glo reagents.
To analyze the data, the luciferase activity was plotted vs. the compound concentration, and EC50 values were determined from a 4-parameter robust fit model with the GraphPad Prism software package (GraphPad Software, Inc., San Diego, Calif.). Results are expressed as the negative decadic logarithm of the EC50 value, pEC50.
Test compounds having a higher pEC50 value in this assay show greater inhibition of HCV genotype 1b replication.

[2] = test system: HCV genotype 1a replicon; experiment: HCV genotype 1a replicon assay (NS3 protease activity readout); type: cell-based, hepatitis C virus; conditions: for Genotype 1a: HCV genotype 1a replicon; for EC50: Hepatitis C virus, read-out: Genotype 1a, HCV genotype 1a replicon
How it was run: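 Genotype 1a subgenomic replicon cells (APC89, Huh7.5) were treated with compound dose-responses in G418-free medium, 0.5% DMSO final, for 48 or 72 hours at 37° C. Lysate NS3/4a protease activity measured with 15 μM FRET substrate, 20 min at 37° C (ex 340/em 509 nm); EC50 by 4-parameter fit.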

SMILES	Genotype 1b [1]	Genotype 1a [2]	EC50 [1]	EC50 [2]
COC(=O)N[C@H](C(=O)N1C[C@@H](C)C[C@H]1c1nc(-c2ccc(-c3ccc(C(=O)Nc4ccc(N5C[C@H](C)N(C(=O)[C@H]6CCCN6C(=O)C6CC6)C[C@H]5C)nc4)cc3OC(F)(F)F)cc2)c[nH]1)C(C)C [Example 4-18]	D (D represents pEC50>10 (EC50<0.1 nM))	D (D represents pEC50>10 (EC50<0.1 nM))	–	–
COC(=O)N[C@H](C(=O)N1C[C@@H](C)C[C@H]1c1nc(-c2ccc(-c3ccc(C(=O)Nc4ccc(N5C[C@H](C)N(C(=O)[C@H]6CCCN6C(=O)NC(C)C)C[C@H]5C)nc4)cc3OC(F)(F)F)cc2)c[nH]1)C(C)C [Example 4-20]	D (D represents pEC50>10 (EC50<0.1 nM))	C (C represents pEC50 between and 9 and about 10, (EC50 between 1 nM and 0.1 nM))	–	–
CNC(=O)N1CCN(c2ccc(C(=O)Nc3cc(OC(F)(F)F)c(-c4ccc(-c5c[nH]c([C@@H]6C[C@H](C)CN6C(=O)[C@@H](NC(=O)OC)C(C)C)n5)cc4)cc3F)cn2)[C@H](C)C1 [Example 1-1]	D (D represents pEC50>10 (EC50<0.1 nM))	D (D represents pEC50>10 (EC50<0.1 nM))	–	–
COC(=O)N[C@H](C(=O)N1C[C@@H](OC)C[C@H]1c1nc(-c2ccc(-c3ccc(C(=O)Nc4ccc(N5CCN(C(=O)C(C)(C)C)C[C@H]5C)nc4)cc3)cc2)c[nH]1)C1CCOCC1 [Example 22-13]	D (D represents pEC50>10 (EC50<0.1 nM))	D (D represents pEC50>10 (EC50<0.1 nM))	–	–
COC(=O)NC(C(=O)N1CC(OC)CC1c1nc(-c2ccc(-c3cc(F)c(NC(=O)c4ccc(N5CCN(C(=O)C(C)(C)C)CC5C)nc4)cc3OC(F)(F)F)cc2)c[nH]1)C(C)OC (stereo not shown) [Example 16-5]	D (D represents pEC50>10 (EC50<0.1 nM))	D (D represents pEC50>10 (EC50<0.1 nM))	–	–
[2H]C([2H])([2H])C1(C([2H])([2H])[2H])CC1C(=O)N1CCN(c2ccc(C(=O)Nc3cc(OC(F)(F)F)c(-c4ccc(-c5c[nH]c([C@@H]6C[C@H](C)CN6C(=O)[C@@H](NC(=O)OC)C(C)C)n5)cc4)cc3F)cn2)[C@H](C)C1 (stereo partly shown) [Example 1-92]	D (D represents pEC50>10 (EC50<0.1 nM))	D (D represents pEC50>10 (EC50<0.1 nM))	–	–
COC(=O)NC(C(=O)N1CC(OC)CC1c1nc(-c2ccc(-c3cc(F)c(NC(=O)c4ccc(N5CCN(C(=O)C(C)(C)CO)CC5C)nc4)cc3OC(F)(F)F)cc2)c[nH]1)C(C)(C)O (stereo not shown) [Example 16-14]	D (D represents pEC50>10 (EC50<0.1 nM))	D (D represents pEC50>10 (EC50<0.1 nM))	–	–
COC(=O)N[C@H](C(=O)N1C[C@@H](OC)C[C@H]1c1nc(-c2ccc(-c3cc(F)c(NC(=O)c4ccc(N5CCN(C(=O)C(C)(C)C)C[C@H]5C)nc4)cc3OC(F)(F)F)cc2)c[nH]1)C(C)C [Example 27-3]	D (D represents pEC50>10 (EC50<0.1 nM))	D (D represents pEC50>10 (EC50<0.1 nM))	–	–
COC(=O)N[C@H](C(=O)N1C[C@@H](C)C[C@H]1c1nc(-c2ccc(-c3ccc(C(=O)Nc4ccc(N5CCN(C(=O)C(C)(C)C)C[C@H]5C)nc4)cc3)cc2)c[nH]1)C1CCOCC1 [Example 22-1]	D (D represents pEC50>10 (EC50<0.1 nM))	D (D represents pEC50>10 (EC50<0.1 nM))	–	–
COC(=O)N[C@H](C(=O)N1C[C@@H](C)C[C@H]1c1nc(-c2ccc(-c3ccc(C(=O)Nc4ccc(N5CCN(C(=O)C(C)(C)C)C[C@H]5C)nc4)cc3)cc2)c(Cl)[nH]1)C1CCOCC1 [Example 22-10]	D (D represents pEC50>10 (EC50<0.1 nM))	D (D represents pEC50>10 (EC50<0.1 nM))	–	–
COC(=O)N[C@H](C(=O)N1C[C@@H](OC)C[C@H]1c1nc(-c2ccc(-c3cc(Cl)c(NC(=O)c4ccc(N5CCN(C(=O)C(C)(C)C)C[C@H]5C)nc4)cc3OC(F)(F)F)cc2)c[nH]1)C(C)(C)O [Example 16-1]	D (D represents pEC50>10 (EC50<0.1 nM))	D (D represents pEC50>10 (EC50<0.1 nM))	–	–
COC(=O)N[C@H](C(=O)N1C[C@@H](C)C[C@H]1c1nc(-c2ccc(-c3cc(Cl)c(NC(=O)c4ccc(N5CCN(C(=O)C(C)(C)CO)C[C@H]5C)nc4)cc3OC(F)(F)F)cc2)c[nH]1)C1CCOCC1 [Example 13-19]	–	–	< 0.1 nM	< 0.1 nM
COC(=O)N[C@H](C(=O)N1C[C@@H](C)C[C@H]1c1nc(-c2ccc(-c3cc(Cl)c(NC(=O)c4ccc(N5C[C@H](C)N(C(=O)c6c[nH]cn6)C[C@H]5C)nc4)cc3OC(F)(F)F)cc2)c[nH]1)C(C)C [Example 1-19]	D (D represents pEC50>10 (EC50<0.1 nM))	D (D represents pEC50>10 (EC50<0.1 nM))	–	–
COC(=O)NC(C(=O)N1CC(OC)CC1c1nc(-c2ccc(-c3cc(F)c(NC(=O)c4ccc(N5CCN(C(=O)C(C)(C)CO)CC5C)nc4)cc3OC(F)(F)F)cc2)c[nH]1)C(C)OC (stereo not shown) [Example 16-13]	D (D represents pEC50>10 (EC50<0.1 nM))	D (D represents pEC50>10 (EC50<0.1 nM))	–	–
COC(=O)N[C@H](C(=O)N1C[C@@H](C)C[C@H]1c1nc(-c2ccc(-c3cc(Cl)c(NC(=O)c4ccc(N5CCN(C(=O)C(C)(C)C)C[C@H]5C)nc4)cc3OC(F)(F)F)cc2)c(F)[nH]1)C(C)C [Example 5-8]	–	–	< 0.1 nM	< 0.1 nM
COC(=O)N[C@H](C(=O)N1C[C@@H](C)C[C@H]1c1nc(-c2ccc(-c3cc(Cl)c(NC(=O)c4ccc(N5CCN(C(=O)C(C)(C)C)C[C@H]5C)nc4)cc3C(F)(F)F)cc2)c[nH]1)C(C)C [Example 1-61]	D (D represents pEC50>10 (EC50<0.1 nM))	D (D represents pEC50>10 (EC50<0.1 nM))	–	–
COC(=O)N[C@H](C(=O)N1C[C@@H](C#N)C[C@H]1c1nc(-c2ccc(-c3cc(Cl)c(NC(=O)c4ccc(N5CCN(C(=O)C(C)(C)C)C[C@H]5C)nc4)cc3OC(F)(F)F)cc2)c[nH]1)C(C)C [Example 15-11]	–	–	< 0.1 nM	< 0.1 nM
COC(=O)NC(C(=O)N1C[C@@H](C)C[C@H]1c1nc(-c2ccc(-c3cc(Cl)c(NC(=O)c4ccc(N5CCN(C(=O)C(C)(C)C)C[C@H]5C)nc4)cc3OC(F)(F)F)cc2)c[nH]1)C1CCC(=O)CC1 (stereo partly shown) [Example 13-35]	–	–	< 0.1 nM	< 0.1 nM
COC(=O)N[C@H](C(=O)N1C[C@@H](N(C)C)C[C@H]1c1nc(-c2ccc(-c3ccc(C(=O)Nc4ccc(N5CCN(C(=O)C6CC6(C)C)C[C@H]5C)nc4)cc3)cc2)c[nH]1)C(C)C (stereo partly shown) [Example 6-5]	–	–	< 0.1 nM	0.1 to 1 nM
COC(=O)N[C@H](C(=O)N1C[C@@H](C)C[C@H]1c1nc(-c2ccc(-c3ccc(C(=O)Nc4ccc(N5CCN(C(=O)[C@H]6CC6(C)C)C[C@H]5C)nc4)cc3)cc2)c(Cl)[nH]1)C1CCOCC1 [Example 22-11]	D (D represents pEC50>10 (EC50<0.1 nM))	D (D represents pEC50>10 (EC50<0.1 nM))	–	–
COC(=O)NC(CC1CCOCC1)C(=O)N1C[C@@H](C)C[C@H]1c1nc(-c2ccc(-c3cc(Cl)c(NC(=O)c4ccc(N5CCN(C(=O)C(C)(C)C)C[C@H]5C)nc4)cc3OC(F)(F)F)cc2)c[nH]1 (stereo partly shown) [Example 13-34]	–	–	< 0.1 nM	< 0.1 nM
COC(=O)N[C@H](C(=O)N1C[C@@H](C)C[C@H]1c1nc(-c2ccc(-c3ccc(C(=O)Nc4ccc(N5CCN(C(=O)C(C)(C)C)C[C@H]5C)nc4)cc3OC(F)(F)F)cc2)c(Cl)[nH]1)C1CCOCC1 [Example 22-6]	D (D represents pEC50>10 (EC50<0.1 nM))	D (D represents pEC50>10 (EC50<0.1 nM))	–	–
COC(=O)N[C@H](C(=O)N1C[C@@H](OC)C[C@H]1c1nc(-c2ccc(-c3ccc(NC(=O)c4ccc(N5CCN(C(=O)C(C)(C)C)C[C@H]5C)nc4)cc3OC(F)(F)F)cc2)c[nH]1)C1CCOCC1 [Example 28-2]	D (D represents pEC50>10 (EC50<0.1 nM))	D (D represents pEC50>10 (EC50<0.1 nM))	–	–
COC[C@H]1CN(c2ccc(NC(=O)c3cc(OC(F)(F)F)c(-c4ccc(-c5c[nH]c([C@@H]6C[C@H](C)CN6C(=O)[C@@H](NC(=O)OC)C6CCOCC6)n5)cc4)cc3Cl)cn2)CCN1C(=O)C(C)(C)C [24-4]	D (D represents pEC50>10 (EC50<0.1 nM))	C (C represents pEC50 between and 9 and about 10, (EC50 between 1 nM and 0.1 nM))	–	–
COC(=O)N[C@H](C(=O)N1C[C@@H](C)C[C@H]1c1nc(-c2ccc(-c3cc(Cl)c(NC(=O)c4ccc(N5CCN(C(=O)C(C)(C)F)C[C@H]5C)nc4)cc3OC(F)(F)F)cc2)c[nH]1)C(C)C [Example 1-96]	D (D represents pEC50>10 (EC50<0.1 nM))	D (D represents pEC50>10 (EC50<0.1 nM))	–	–
COC(=O)N[C@H](C(=O)N1C[C@@H](C)C[C@H]1c1nc(-c2ccc(-c3cc(Cl)c(NC(=O)c4ccc(N5CCN(C(=O)c6c[nH]cn6)C[C@H]5C)nc4)cc3OC(F)(F)F)cc2)c[nH]1)C(C)C [Example 1-18]	D (D represents pEC50>10 (EC50<0.1 nM))	D (D represents pEC50>10 (EC50<0.1 nM))	–	–
